# Test results: paper PMC9684134, “In vitro biochemical assessment of mixture effects of two endocrine disruptors on INS-1 cells” (Scientific Reports, 2022)
# Where two headings read alike, the source gives them in different places.
# Key:
# INS-1 cells [1] = assay: Glucose-galactose cytotoxicity assay (MTT); conditions: for IC50: Rattus norvegicus, INS1, 48 h
# Method: Sub-culturing was in ratio 4:3. Cell density was 15,000 cells/well and treated with 200 µL of the test solution that was solubilized in glucose-free RPMI medium supplemented with 5 mM glucose or 5 mM galactose. The cells were incubated further for 48 h. The spent medium was replaced with 100 µL glucose in RPMI medium. 2,4-dinitrophenol served as positive control. The cells were finally loaded with MTT as in section “Cell viability assay” but incubation took 120 min.
# INS-1 cells [2] = type: cell-based, rat; conditions: for Annexin PI: mode of cell death (summary): Table 3 summary
# Method: The treated cells were sub-cultured at 4:3. Annexin V-FITC staining assay was performed as recommended by the manufacturer. Melphalan (Mel) and Etoposide (Etop) served as the positive controls. Incubation lasted 48 h. The spent medium was removed and 50 µL PI staining solution was in each well and incubated for 15 min at 37 °C followed by image acquisition and data analysis as in previous experiments. Images from nine sites per well were acquired using filter sets appropriate for DAPI, FITC and Texas red dyes.
# [3] = Cell viability assay (MTT); type: cell-based; conditions: rat
# Method: INS-1 cells were routinely grown at 5% CO2, 95% air at 37 °C in RPMI-1640 containing 11.1 mM glucose and supplemented with 10% foetal calf serum (FCS), 1 mM pyruvate, 10 mM 4-(2-hydroxyethyl)-1-piperazine ethane sulphonic acid (HEPES), 50 µM 2-mercaptoethanol, 100 U penicillin/mL and 100 µg streptomycin/mL. Sub-confluent cultures were trypsinized to dislodge the cells and sub-cultured at a ratio of 1:3 or 1:0.75 in other experiments. INS-1 cells were seeded into a 96-well plate at densities of 10 000, 15 000 or 30,000 cells/well. They were allowed to attach at 37 °C overnight.
# The cells were incubated for 48 h with test compounds containing 20 µM or 30 µM 4-tOP and 8 µM or 12.5 µM TCS. Combination treatments (4-tOP + TCS) were 12.5 µM or 25 µM at 1:1 ratio.
# Cell viability was assessed by a principle of enzymatic reduction of 3-[4, 5-dimethylthiazole-2-yl]-2, 5-diphenyltetrazolium bromide (MTT) to formazan. The treated cells respectively were loaded with 20 µL 0.5 mg/mL MTT and incubated at 37 °C for 3 h. […] The absorbance of the purple-coloured formazan was measured at 540 nm on microplate reader. IC50, (the median inhibitory concentration) was calculated with GraphPad Prism software. Data were expressed as a percentage of control.
# Results were expressed as means ± SD from at least three replicate measurements. The difference between means was analyzed with ANOVA, α value = 0.05. […]
# INS-1 cells [4] = system: INS-1 cells
# Method: (§2) TMRE is a cell permeable cationic dye that accumulates in the mitochondrial matrix according to mitochondrial membrane potential (ΔψM). Staining solution was prepared by adding 5 mL PBS, 50 µL TMRE working solution and 2 µL Hoechst 33342 solution to 5 mL of RPMI. The spent medium was removed and 50 µL staining solution was put in each well and incubated for 30 min at 37 °C. Image acquisition and data analysis were done as indicated.
# INS-1 cells [5] = assay: Oxidative stress: reduced glutathione by ThiolTracker Violet staining; type: cell-based, rat; conditions: 48 h; for Glutathione levels (oxidative stress summary): Table 3 summary, low and high concentration
# Method: (§1) The spent medium in section “Treatment of INS-1 cells” was removed and 50 µL CellROX staining solution was added to each well according to the manufacturer’s instructions and incubated at 37 °C for 30 min. Images from nine sites per well were acquired using filter sets appropriate for DAPI (4′, 6-diamidino-2-phenylindole) and TRITC (tetramethylrhodamine-isothiocyanate) which were the fluorophors. Image acquisition was done on ImageXpress Micro XLS and analyzed using the Multi-Wavelength Scoring software (Molecular Devices). In another experiment 50 µL ThiolTracker Violet staining solution was put in each well and incubated at 37 °C for 20 min. Images from nine sites per well were acquired using filter sets appropriate for DAPI and CY5 (amine reactive fluorescent dye). Image acquisition and data analysis were as done for the CellROX orange reagent. Excitation/Emission wavelength was at 545/565 nm.
# INS-1 cells [6] = assay: Oxidative stress: ROS by CellROX orange staining; type: cell-based, rat; conditions: Table 3 summary, low and high concentration, 48 h
# Method: as §1
# INS-1 cells [7] = assay: Mitochondrial mass (MitoTracker Green staining); type: cell-based, rat; conditions: 48 h; for Mitochondrial mass (summary): Table 3 summary, all concentrations
# Method: Staining solution consisted of 10 mL of PBS to which was added 1 µL MitoTracker Green (MTG) stock (1 mM in DMSO) and 2 µL Hoechst solution (10 mg/mL in DMSO). Spent medium was removed and 50 µL staining solution added to each well (96 wells) followed by incubation at 37 °C for 20 min.
# INS-1 cells [8] = assay: Glucose uptake assay (glucose oxidase); type: cell-based, rat; conditions: Table 3 summary, low and high concentration, 48 h
# Method: Glucose uptake was determined in INS-1 cells by monitoring the levels of glucose remaining in the culture medium after a selected treatment period. The cell density was 30 000 per well; one row was without cells to serve as maximum glucose content. Spent medium was removed and the cells were treated with 100 µL of the test compounds at concentrations indicated in section “Treatment of INS-1 cells”. The cells were incubated for a further 48 h and 5µL spent culture medium was thereafter transferred to a new plate of 96 wells and 200 µL glucose oxidase reagent added. Incubation was at 37 °C for 20 min and absorbance was read at 520 nm. Glucose uptake was obtained as the difference in glucose concentration between wells without cells and those with cells and respective treatments.
# INS-1 cells [9] = assay: Glucose stimulated calcium influx (Fluo-4); type: cell-based, rat; conditions: 20 mM glucose stimulation; for Intracellular calcium levels (summary): Table 3 summary, 24 h incubation; for Glucose stimulated intracellular calcium flux compared with the Blank: positive controls
# Method: Fluo-4 dye is specific for intracellular Ca^2+ concentration. On binding calcium, the green fluorescence intensity increases by more than 100 folds (excitation/emission 494/[…]). Incubation was for 24 h. Staining solution was prepared by adding 20 µL Flou-4 stock solution (1 mM in DMSO) and 2 µL Hoechst solution to 10 mL of PBS. After staining, incubation was done for 30 min at 37 °C. The stain solution was removed and replaced with 50 µL PBS. Incubation was further carried out at room temperature for 20 min. Difference in fluorescence intensity between wells containing glucose and those without glucose represents calcium influx in response to glucose. Just prior to image acquisition, 20 mM glucose was added to four of the eight replicate wells and incubated at room temperature for 10 min. Image acquisition and data analyses were done as usual. Filter sets appropriate for DAPI and FITC were also used. Diazoxide and Glibenclamide were used as the positive controls.
# [10] = system: caspase 3 activation in INS-1 cells; assay: Caspase-3 activation assay; type: cell-based, rat; conditions: 48 h
# Method: Additional 100 µL test compounds were solubilized in the medium and incubated for 48 h. The spent medium was replaced with 100 µL of fix solution (4% formaldehyde in phosphate-buffered saline (PBS) and was fixed overnight; the cells were permeabilized with ice cold methanol, then washed with PBS and blocked using 1% BSA followed by incubation with the primary antibody at 1:200 dilution in blocking buffer for 2 h. The excess antibody was removed by washing with blocking buffer. Incubation was thereafter carried out with secondary antibody (FITC labelled) for 30 min and later washed with blocking buffer to remove excess antibody. Images from nine sites per well were acquired using filter sets appropriate for DAPI and FITC. Image analysis was done as in previous experiments.
# INS-1 cells [11] = assay: Mitochondrial membrane potential (TMRE staining); conditions: 48 h
# Method: as §2
# HepG2 human liver cells = system: HepG2 human liver cells; design: method as in PMID 27459410; conditions: cited from earlier work
# [12] = design: method as in PMID 9894786; conditions: Ca2+-dependent binding to phosphatidylserine; cited from earlier work
# [13] = high concentration (12.5 µM TCS, 30 µM 4-tOP, 25 µM Mix), 48 h
# [14] = low concentration (8 µM TCS, 20 µM 4-tOP, 12.5 µM Mix), 48 h
molecule,measurement,setting,value
"O=[N+]([O-])c1ccc(O)c([N+](=O)[O-])c1 [2,4-Dinitrophenol, 2,4-dinitrophenol, reference compound]",IC50,INS-1 cells [1]; read-out: IC50 Galactose,24.5 µM
same,IC50,INS-1 cells [1]; read-out: IC50 Glucose,46 µM
CC(C)(C)CC(C)(C)c1ccc(O)cc1 [4-tert-Octylphenol],Induction of apoptosis compared with the Blank,"INS-1 cells [2]; 20 µM or 30 µM, 48 h",failed to significantly induce apoptosis
same,Annexin PI: mode of cell death (summary),INS-1 cells [2],Cell death by 4-tOP was by necrosis
same,Proportion of live cells,INS-1 cells [2]; [13],73.8%
same,Cell death by necrosis compared with the Blank,"INS-1 cells [2]; high concentration (30 µM 4-tOP), 48 h",significantly underwent necrosis
same,Proportion of live cells,INS-1 cells [2]; [14],81.4%
same,IC50 at 48 h,[3],32.5 µM
same,Mitochondrial membrane potential MMP (summary),INS-1 cells [4],The increase in MMP was not substantial
same,Glutathione levels (oxidative stress summary),INS-1 cells [5],Decrease glutathione levels corroborated ROS production
same,IC50,INS-1 cells [1]; read-out: IC50 Galactose,34.5 µM
same,IC50,INS-1 cells [1]; read-out: IC50 Glucose,33.4 µM
same,Glucose-galactose differential cytotoxicity (summary),"INS-1 cells [1]; rat, 48 h",Higher IC50 in galactose than in glucose
same,ROS (oxidative stress summary),INS-1 cells [6],Dose dependent increase in ROS but variation high hampering statistical significance
same,Mitochondrial mass (summary),INS-1 cells [7],No substantial change in mitochondrial content at all concentrations relative to the untreated cells
same,Glucose uptake (summary),INS-1 cells [8],Consumption pattern as with T. No significant change in glucose consumption
same,Intracellular calcium levels (summary),INS-1 cells [9],No significant changes in glucose stimulated intracellular calcium levels
same,Caspase 3 activation compared with the Blank,[10]; test substances,Increase in caspase 3 activation not substantial
"CC1=NS(=O)(=O)c2cc(Cl)ccc2N1 [Diazoxide, reference compound]",Glucose stimulated intracellular calcium flux compared with the Blank,INS-1 cells [9],significantly increased intracellular calcium flux
"COc1cc([C@@H]2c3cc4c(cc3[C@@H](O[C@@H]3O[C@@H]5CO[C@@H](C)O[C@H]5[C@H](O)[C@H]3O)[C@H]3COC(=O)[C@H]23)OCO4)cc(OC)c1O [Etoposide, reference compound]",Proportion of cells died by apoptosis,"INS-1 cells [2]; positive control 40 µM, 48 h",17.4%
same,Proportion of live cells,"INS-1 cells [2]; positive control 40 µM, 48 h",42.5%
same,GSH compared with the Blank,INS-1 cells [5]; positive control 40 µM,significant reduction of GSH
same,Caspase 3 activation compared with the Blank,[10]; positive control 40 µM,significant increases in caspase 3 activation
"COc1ccc(Cl)cc1C(=O)NCCc1ccc(S(=O)(=O)NC(=O)NC2CCCCC2)cc1 [Glibenclamide, reference compound]",Glucose stimulated intracellular calcium flux compared with the Blank,INS-1 cells [9],significantly increased intracellular calcium flux
"N[C@@H](Cc1ccc(N(CCCl)CCCl)cc1)C(=O)O [Melphalan, reference compound]",Proportion of cells died by apoptosis,"INS-1 cells [2]; positive control 40 µM, 48 h",15.7%
same,Proportion of live cells,"INS-1 cells [2]; positive control 40 µM, 48 h",34.5%
same,GSH compared with the Blank,INS-1 cells [5]; positive control 40 µM,significant reduction of GSH
same,Mitochondrial membrane potential ΔΨM (MMP) compared to the Blank,INS-1 cells [11]; positive control 40 µM,Significant loss of mitochondrial membrane potential
same,Mitochondrial mass relative to the Blank,INS-1 cells [7]; positive control 40 µM,significantly increased mitochondrial mass
Oc1cc(Cl)ccc1Oc1ccc(Cl)cc1Cl [Triclosan],IC50,HepG2 human liver cells,24.5 µM
same,Annexin PI: mode of cell death (summary),INS-1 cells [2],TCS induced cell death by apoptosis
same,Proportion of cells died by apoptosis,"INS-1 cells [2]; high concentration (12.5 µM TCS, 25 µM Mix), 48 h",16.6%
same,Proportion of live cells,INS-1 cells [2]; [13],43.7%
same,Proportion of live cells,INS-1 cells [2]; [14],81.2%
same,IC50 at 48 h,"[3]; INS-1 cells, MTT, 48 h, read-out: IC50 for cytotoxicity against INS-1 cells",12.7 µM
same,Glutathione levels (oxidative stress summary),INS-1 cells [5],Decreased glutathione levels corroborated ROS production
same,GSH compared with the Blank,INS-1 cells [5]; high concentration (12.5 µM TCS),significant reduction of GSH
same,IC50,INS-1 cells [1]; read-out: IC50 Galactose,8.23 µM
same,IC50,INS-1 cells [1]; read-out: IC50 Glucose,11.7 µM
same,Glucose-galactose differential cytotoxicity (summary),INS-1 cells [1]; Table 3 summary,Increased cytotoxicity in galactose medium indicative of potential mitochondrial toxicity
same,ROS (oxidative stress summary),INS-1 cells [6],Dose dependent increase in ROS but variation high hampering statistical significance
same,Mitochondrial membrane potential MMP (summary),INS-1 cells [11]; Table 3 summary,Significant decrease in MMP at the high concentration. only
same,Mitochondrial membrane potential ΔΨM (MMP) compared to the Blank,"INS-1 cells [11]; high concentration (12.5 µM TCS, 25 µM Mix)",Significant loss of mitochondrial membrane potential
same,Mitochondrial mass (summary),INS-1 cells [7],No substantial change in mitochondrial content at all the concentrations relative to the untreated cells
same,Glucose uptake (summary),INS-1 cells [8],"Decreased glucose consumption at high concentration, increase at low concentration but not substantial compared with Blank"
same,Intracellular calcium levels (summary),INS-1 cells [9],The reduction in glucose stimulated intracellular calcium flux was not substantial
same,Caspase 3 activation compared with the Blank,[10]; test substances,Increase in caspase 3 activation not substantial
Annexin V: 35 kDa Ca2+-dependent phospholipid binding protein used to detect phosphatidylserine,Kd,[12],0.007 µM
